Assays:
Hpr6 = assay: Induction of Hpr6 expression by drugs, western blot; format: cell-based, human
Source text: 1A: western blot analysis showing expression of Hpr6 (top panel) and tubulin (bottom panel) in the cell lines BT549 (lane 1), MCF-7 (lane 2), HCT-100 (lane 3), MDA-MB-231 (lane 4), MDA-MB-435 (lane 5), and HeLa (lane 6). […] The position of molecular weight markers is indicated to the left. […] MDA-MB-231 cells were untreated (upper panel, lane 1), treated with 0.5 or μM doxorubicin (upper panel, lanes 2 and 3), or 0.25 1 μm camptothecin (upper panel, lane 4) for 3 days, and the expression of Hpr6 was analyzed by western blot.
Drug treatment, viability assays, and immunological analyses. Doxorubicin (Sigma, St. Louis, Mo.) was added to culture media and incubated for five days. Cells were incubated with hydrogen peroxide (Fisher), mechlorethamine (kindly provided by Dr. Robert Orlowski, University of North Carolina at Chapel Hill) or camptothecin (Sigma) for 72 hours. Trypan blue and MTT assays were performed using standard techniques as previously described (Hand et al. Journal of Cellular Biochemistry 2003; 90: 534-47). Western blots of cultured cells and tumors were performed as described previously (Hand et al. Journal of Cellular Biochemistry 2003; 90: 534-47; Yang et al. Tumor Biology 2003; 24: 61-9). The antibodies used were as follows: anti-HA (HAll, BAbCo, Berkeley, Calif.), tubulin (Fisher), and Hpr6 (Meyer et al. Steroids 1998; 63: 111-6). Cells were visualized using a VistaVision inverted microscope attached to a Sony DCS F717 digital camera (VWR, Batavia, Ill.). For immunofluorescence, MCF-7/vector and MCF-7/Hpr6 cells (Hand et al. Journal of Cellular Biochemistry 2003; 90: 534-47) were fixed with 3.7% formaldehyde, permeabilized with 0.1% Triton X-100, blocked with 10% normal goat serum, and incubated with the HAll monoclonal antibody. Cells were then washed, incubated with a FITC-Iabeled anti-mouse secondary antibody (Santa Cruz Biotechnology, Santa Cruz, Calif.), washed, mounted, and visualized using a Zeiss fluorescent microscope.
The effect of the Ad-Hpr6-mut adenovirus in response to chemotherapy was analyzed for two reasons. First, the budding yeast homologue of Hpr6 controls resistance to damaging agents.

[1] = Heme binding of purified Hpr6 proteins by absorbance at 400 nm; settings: purified protein liberated from GST fusion, triplicate
Protocol: FIG. 2. […] 2A: Purification of GST-Hpr6 (lane 1) and GST-Hpr6-mut (lane 2) fusion proteins. Proteins were purified using glutathione-agarose and analyzed by SDS-PAGE electrophoresis. 2B: Heme binding by Hpr6 (left column) but not Hpr6-mut (right column). Solubilized proteins were analyzed for absorbance at 400 nm, and measurements were performed in triplicate. 2C: western blot analysis of MDA-MB-231 cells infected with 500, 1000, or 2000 pfu/cell of Ad-Hpr6-mut (lanes 1-3) or 2000 pfu/cell of Ad-LacZ (lane 4). Hpr6 expression was visualized with an antibody to the HA epitope tag. D. The Hpr6-mut protein is overexpressed compared to endogenous Hpr6 following Ad-Hpr6-mut infection. MDA-MB 231 cells were infected with Ad-LacZ (lane 1) or Ad-Hpr6-mut (lane 2) and analyzed by western blots probed for HA (top panel), Hpr6 (middle panel), or tubulin (bottom panel). The positions of the exogenous Hpr6-mut and endogenous Hpr6 protein are indicated in the center panel (top and bottom, respectively).
Fusion protein plasmids, preparation, and analysis. Hpr6-GST fusion proteins contained amino acids 43-195 of the Hpr6 open reading frame. […]
Hpr6 binds to heme, and the D120G mutation in the heme-1 domain blocks heme-binding activity. […] The measurement was performed in triplicate, and the difference between Hpr6 and Hpr6-D120G absorbance was statistically significant (P=0.03). […]

Row | Compound | induction of Hpr6 expression (Hpr6; MCF-7 cells, data not shown) | induction of Hpr6 expression (Hpr6; MDA-MB-231 cells, western blot) | heme binding (absorbance at 400 nm) [1]
1 | CC[C@@]1(O)C(=O)OCc2c1cc1n(c2=O)Cc2cc3ccccc3nc2-1 [camptothecin] | induced | induced | 
2 | N.N.[Cl][Pt][Cl] [cisplatinum] |  | not induced | 
3 | COc1cccc2c1C(=O)c1c(O)c3c(c(O)c1C2=O)C[C@@](O)(C(=O)CO)C[C@@H]3O[C@H]1C[C@H](N)[C@H](O)[C@H](C)O1 [doxorubicin] | induced | induced | 
4 | OO [hydrogen peroxide] |  | not induced | 
5 | Hpr6-D120G: mutant Hpr6 polypeptide, SEQ ID NO:1, aspartic acid 120 in heme binding region mutated to glycine; inactive form |  |  | absent
6 | Hpr6: wild-type human heme-1 domain protein Hpr6 |  |  | bound efficiently to heme

From patent US7342100B2, “Hpr6 mutants and uses thereof” (University of Kentucky Research Foundation, priority 2004, dated 2008)
